According to patent US7253189B2, “Cannabinoid receptor ligands” (Schering Corporation, priority 2002, dated 2007):

Target: T1, recombinant human cannabinoid CB2 receptor (Homo sapiens, UniProt P34972)
T1 construct: purchased Receptor Biology RB-HCB2
Test: competition with [3H] CP-55,940 for binding to recombinant cannabinoid CB2 receptor membranes
Settings: not given
Description: Potential cannabinoid receptor ligands were screened for the ability to compete with [^3H] CP-55,940 for binding to recombinant cannabinoid receptors. Test compounds were serially diluted in Diluent Buffer (50 mM Tris pH 7.1, 1 mM EDTA, 3 mM MgCl2, 0.1% BSA, 10% DMSO, 0.36% methyl cellulose (Sigma M-6385)) from stocks prepared in 100% DMSO. Aliquots (10 μl) were transferred into 96-well microtiter plates. Membrane preparations of recombinant human cannabinoid CB2 receptor (Receptor Biology #RB-HCB2) or recombinant human cannabinoid CB1 receptor (Receptor Biology #RB-HCB1) were diluted to 0.3 mg/ml in Binding Buffer (50 mM Tris pH 7.2, 1 mM EDTA, 3 mM MgCl2, 0.1% BSA). Aliquots (50 μl) were added to each well of the microtiter plate. The binding reactions were initiated by addition of [^3H] CP-55,940 (New England Nuclear # NET 1051; specific activity=180 Ci/mmol available from New England Nuclear) to each well of the microtiter plate. Each 100 μl reaction mixture contained 0.48 nM [^3H] CP-55,940, 15 ug membrane protein in binding buffer containing 1% DMSO and 0.036% methyl cellulose. Following incubation for 2 hours at room temperature, the reaction mixtures were filtered through 0.5% polyethylenimine-coated GF/C filter plates (UniFilter-96, Packard) with a TomTec Mark 3U Harvester (Hamden, Conn.). The filter plate was washed 5 times with binding buffer, rotated 180°, then re-washed 5 times with binding buffer. Bound radioactivity was quantitated following addition of 30 μl of Packard Microscint 20 scintillant in a Packard TopCount NXT microplate scintillation counter. Non-linear regression analysis of the resulting data was performed using Prism 2.0b (from GraphPad, San Diego, Calif.).
The activities (potencies) for the compounds of the invention are determined by measuring their Ki values.

T1 sequence (P34972 whole entry): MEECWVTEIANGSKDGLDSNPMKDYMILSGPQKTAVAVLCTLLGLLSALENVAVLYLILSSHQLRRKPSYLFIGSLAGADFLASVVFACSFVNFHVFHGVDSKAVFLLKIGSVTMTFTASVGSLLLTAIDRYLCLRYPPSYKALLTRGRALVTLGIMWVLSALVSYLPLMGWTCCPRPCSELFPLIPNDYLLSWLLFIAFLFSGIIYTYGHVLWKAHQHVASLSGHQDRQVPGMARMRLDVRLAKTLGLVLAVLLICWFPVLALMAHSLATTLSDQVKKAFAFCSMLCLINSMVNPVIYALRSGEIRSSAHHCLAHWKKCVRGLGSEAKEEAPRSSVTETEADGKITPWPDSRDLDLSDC

Row | SMILES | Ki
1 | CS(=O)(=O)NC1CCc2cc(S(=O)(=O)c3ccc(C4CC4)cc3S(=O)(=O)c3ccccn3)ccc21 (stereo not drawn) [Compound 9] | < 20 nM
2 | CS(=O)(=O)NC1CCc2cc(C(=O)c3ccc(OC(F)(F)F)cc3S(=O)(=O)c3ccccc3F)ccc21 (stereo not drawn) [Compound 2] | < 20 nM

Same assay, conditions: 0.48 nM [3H] CP-55,940, 15 ug membrane protein, 2 hours at room temperature; read-out: CB2 Ki

Row | Ki | SMILES
3 | < 20 nM | CS(=O)(=O)NC1CCc2cc(S(=O)(=O)c3cc4ccccc4n3S(=O)(=O)c3ccccn3)ccc21 (stereo not drawn) [Compound 10]
4 | < 20 nM | COc1ccc(S(=O)(=O)c2ccc3c(c2)CCC3NS(=O)(=O)C(F)(F)F)c(S(=O)(=O)c2ccccc2F)c1 (stereo not drawn) [Compound 5]
5 | < 20 nM | O=C(NC1CCc2cc(S(=O)(=O)c3ccc(C4CC4)cc3S(=O)(=O)c3ccccn3)ccc21)C(F)(F)F (stereo not drawn) [Compound 19]
6 | < 20 nM | O=C(NC1CCc2cc(Cc3ccc(OC(F)(F)F)cc3S(=O)(=O)c3ccccc3F)ccc21)C(F)(F)F (stereo not drawn) [Compound 23]
7 | < 20 nM | CS(=O)(=O)NC1CCc2cc(S(=O)(=O)c3ccc(Cl)cc3S(=O)(=O)c3ccccn3)ccc21 (stereo not drawn) [Compound 8]
8 | < 20 nM | O=S(=O)(c1ccc2c(c1)CCC2NS(=O)(=O)C(F)(F)F)c1ccc(Cl)cc1S(=O)(=O)c1ccccc1F (stereo not drawn) [Compound 6]
9 | < 20 nM | O=S(=O)(c1ccc2c(c1)CCC2NS(=O)(=O)C(F)(F)F)c1ccc(C2CC2)cc1S(=O)(=O)c1ccccn1 (stereo not drawn) [Compound 12]
